{
  "source": "patent US20240041877A1",
  "about": "“DOSAGE REGIME AND METHOD FOR TREATING PULMONARY ARTERIAL HYPERTENSION” (Altavant Sciences GmbH, priority 2019, published 2024)",
  "key": {"[1]": {"assay": "Cardiac conduction (QTcF) in healthy adult subjects", "assay_type": "in vivo, human"}, "[2]": {"assay": "clinical", "conditions": "human; for Cmax at 1 day / Cmax at 14 day: 100 mg", "excerpt": "Food effect was to be evaluated in Part 1, Period 2.\nPharmacokinetic data were to be summarized descriptively."}, "[3]": {"assay": "Part 1 (SAD): urine pharmacokinetics (amount excreted, renal clearance) after a single oral dose of KAR5585", "assay_type": "in vivo, human", "conditions": "for CL renal: human", "protocol": "Renal clearance of KAR5417 was calculated from the area under the plasma time concentration curve (AUC0-96) for KAR5417 and the amount of KAR5417 recovered in urine (Table 21)."}, "[4]": {"conditions": "KAR5585 in urine, 100 mg KAR5585 single oral dose, mean"}, "[5]": {"conditions": "KAR5585 in urine, 200 mg KAR5585 single oral dose, mean"}, "[6]": {"conditions": "KAR5585 in urine, 400 mg (Fasted) KAR5585 single oral dose, mean"}, "[7]": {"conditions": "KAR5585 in urine, 400 mg (Fed) KAR5585 single oral dose, mean"}, "[8]": {"conditions": "KAR5585 in urine, 700 mg KAR5585 single oral dose, mean"}},
  "note": "Like-named read-outs stand apart in the source and are kept apart here.",
  "data": [
    {"smiles": "Nc1nc(O[C@H](c2ccc(Cl)cc2-c2ccccc2)C(F)(F)F)cc(N2CCC3(CC2)CN[C@H](C(=O)O)C3)n1", "note": "[KAR5417, (S)-8-(2-amino-6-((R)-1-(5-chloro-[1,1T-biphenyl]-2-yl)-2,2,2-trifluoroeth-oxy)pyrimidin-4-yl)-2,8-diazaspiro[4.5]decane-3-carboxylic acid]", "values": [
      {"measurement": "tendency to increase QTcF in a dose-dependent manner", "setting": "[1]", "result": "Neither the prodrug (KAR5585) nor the active drug (KAR5417) showed any tendency to increase QTcF in a dose-dependent manner"},
      {"measurement": "Cmax at 1 day", "setting": "[2]; plasma, oral", "result": 121, "unit": "ng/mL"},
      {"measurement": "Cmax at 14 day", "setting": "[2]; plasma, oral", "result": 194, "unit": "ng/mL"},
      {"measurement": "highest amount excreted in urine", "setting": "[3]; 400 mg fed Cohort (Cohort 3B)", "result": "0.331 % of the dose"},
      {"measurement": "Amount Excreted (Ae)", "setting": "[3]; KAR5417 in urine, 100 mg KAR5585 single oral dose, mean", "result": 233, "unit": "µg"},
      {"measurement": "Total Excreted (%)", "setting": "[3]; KAR5417 in urine, 100 mg KAR5585 single oral dose, mean, assuming complete conversion of KAR5585 to KAR5417", "result": 0.245, "unit": "%"},
      {"measurement": "Amount Excreted (Ae)", "setting": "[3]; KAR5417 in urine, 200 mg KAR5585 single oral dose, mean", "result": 211, "unit": "µg"},
      {"measurement": "Total Excreted (%)", "setting": "[3]; KAR5417 in urine, 200 mg KAR5585 single oral dose, mean, assuming complete conversion of KAR5585 to KAR5417", "result": 0.111, "unit": "%"},
      {"measurement": "Amount Excreted (Ae)", "setting": "[3]; KAR5417 in urine, 400 mg (fasted) KAR5585 single oral dose, mean", "result": 769, "unit": "µg"},
      {"measurement": "Total Excreted (%)", "setting": "[3]; KAR5417 in urine, 400 mg (fasted) KAR5585 single oral dose, mean, assuming complete conversion of KAR5585 to KAR5417", "result": 0.202, "unit": "%"},
      {"measurement": "Amount Excreted (Ae)", "setting": "[3]; KAR5417 in urine, 400 mg (fed) KAR5585 single oral dose, mean", "result": 1260, "unit": "µg"},
      {"measurement": "Total Excreted (%)", "setting": "[3]; KAR5417 in urine, 400 mg (fed) KAR5585 single oral dose, mean, assuming complete conversion of KAR5585 to KAR5417", "result": 0.331, "unit": "%"},
      {"measurement": "Amount Excreted (Ae)", "setting": "[3]; KAR5417 in urine, 700 mg KAR5585 single oral dose, mean", "result": 998, "unit": "µg"},
      {"measurement": "Total Excreted (%)", "setting": "[3]; KAR5417 in urine, 700 mg KAR5585 single oral dose, mean, assuming complete conversion of KAR5585 to KAR5417", "result": 0.150, "unit": "%"},
      {"measurement": "Amount Excreted (Ae)", "setting": "[3]; KAR5417 in urine, 1200 mg KAR5585 single oral dose, mean", "result": 1170, "unit": "µg"},
      {"measurement": "Total Excreted (%)", "setting": "[3]; KAR5417 in urine, 1200 mg KAR5585 single oral dose, mean, assuming complete conversion of KAR5585 to KAR5417", "result": 0.102, "unit": "%"},
      {"measurement": "Amount Excreted (Ae)", "setting": "[3]; KAR5417 in urine, 2000 mg KAR5585 single oral dose, mean", "result": 2130, "unit": "µg"},
      {"measurement": "Total Excreted (%)", "setting": "[3]; KAR5417 in urine, 2000 mg KAR5585 single oral dose, mean, assuming complete conversion of KAR5585 to KAR5417", "result": 0.112, "unit": "%"},
      {"measurement": "CL renal", "setting": "[3]; plasma and urine, oral, from plasma AUC0-96 and amount recovered in urine, read-out: Renal clearance, range across doses", "result": "2.62 to 4.93", "unit": "mL/min"},
      {"measurement": "CL renal", "setting": "[3]; urine and plasma, po, 100 mg, KAR5417, 100 mg KAR5585 single oral dose, mean, read-out: CLR (converted)", "result": 4.93, "unit": "mL/min"},
      {"measurement": "CL renal", "setting": "[3]; urine and plasma, po, 200 mg, KAR5417, 200 mg KAR5585 single oral dose, mean, read-out: CLR (converted)", "result": 2.67, "unit": "mL/min"},
      {"measurement": "CL renal", "setting": "[3]; urine and plasma, po, 400 mg, KAR5417, 400 mg (fasted) KAR5585 single oral dose, mean, read-out: CLR (converted)", "result": 3.62, "unit": "mL/min"},
      {"measurement": "CL renal", "setting": "[3]; urine and plasma, po, 400 mg, KAR5417, 400 mg (fed) KAR5585 single oral dose, mean, read-out: CLR (converted)", "result": 3.18, "unit": "mL/min"},
      {"measurement": "CL renal", "setting": "[3]; urine and plasma, po, 700 mg, KAR5417, 700 mg KAR5585 single oral dose, mean, read-out: CLR (converted)", "result": 3.18, "unit": "mL/min"},
      {"measurement": "CL renal", "setting": "[3]; urine and plasma, po, 1200 mg, KAR5417, 1200 mg KAR5585 single oral dose, mean, read-out: CLR (converted)", "result": 2.62, "unit": "mL/min"},
      {"measurement": "CL renal", "setting": "[3]; urine and plasma, po, 2000 mg, KAR5417, 2000 mg KAR5585 single oral dose, mean, read-out: CLR (converted)", "result": 3.43, "unit": "mL/min"}
    ]},
    {"smiles": "CCOC(=O)[C@@H]1CC2(CCN(c3cc(O[C@H](c4ccc(Cl)cc4-c4ccccc4)C(F)(F)F)nc(N)n3)CC2)CN1", "note": "[KAR5585, (S)-ethyl 8-(2-amino-6-((R)-1-(5-chloro-[1,1′-biphenyl]-2-yl)-2,2,2-trifluoroethoxy)pyrimidin-4-yl)-2,8-diazaspiro[4.5]decane-3-carboxylate]", "values": [
      {"measurement": "tendency to increase QTcF in a dose-dependent manner", "setting": "[1]", "result": "Neither the prodrug (KAR5585) nor the active drug (KAR5417) showed any tendency to increase QTcF in a dose-dependent manner"},
      {"measurement": "half-life", "setting": "[2]; in vivo, 400 mg", "result": 3.14, "unit": "h"},
      {"measurement": "Cmax", "setting": "[2]; in vivo, 400 mg/dose", "result": 110, "unit": "ng/mL"},
      {"measurement": "Cmax at 1 day", "setting": "[2]; plasma, oral", "result": 16.7, "unit": "ng/mL"},
      {"measurement": "Cmax at 14 day", "setting": "[2]; plasma, oral", "result": 21.3, "unit": "ng/mL"},
      {"measurement": "AUC(0-inf)", "setting": "[2]; plasma, oral, 100 mg/dose", "result": 54.1, "unit": "ng·h/mL"},
      {"measurement": "AUC(0-t)", "setting": "[2]; plasma, oral, 100 mg/dose", "result": 50.8, "unit": "ng·h/mL"},
      {"measurement": "Cmax", "setting": "[2]; plasma, oral, 100 mg/dose", "result": 15.8, "unit": "ng/mL"},
      {"measurement": "Tmax", "setting": "[2]; plasma, oral, 100 mg/dose", "result": 1, "unit": "h"},
      {"measurement": "Vd/F", "setting": "[2]; plasma, oral, 100 mg/dose", "result": 4620, "unit": "L"},
      {"measurement": "half-life", "setting": "[2]; plasma, oral, 100 mg/dose", "result": 1.73, "unit": "h"},
      {"measurement": "AUC(0-inf)", "setting": "[2]; plasma, oral, 400 mg", "result": 305, "unit": "ng·h/mL"},
      {"measurement": "Tmax", "setting": "[2]; plasma, oral, 400 mg", "result": 2, "unit": "h"},
      {"measurement": "AUC(0-inf)", "setting": "[2]; plasma, oral, 400 mg/dose", "result": 482, "unit": "ng·h/mL"},
      {"measurement": "Cmax", "setting": "[2]; plasma, oral, 400 mg/dose", "result": 89, "unit": "ng/mL"},
      {"measurement": "concentration at 12 h", "setting": "[2]; plasma, oral, 400 mg/dose", "result": 11.4, "unit": "ng/mL"},
      {"measurement": "half-life", "setting": "[2]; plasma, oral, 400 mg/dose", "result": 6.45, "unit": "h"},
      {"measurement": "Amount Excreted (Ae)", "setting": "[3]; [4]", "result": 0, "unit": "µg"},
      {"measurement": "Total Excreted (%)", "setting": "[3]; [4]", "result": 0, "unit": "%"},
      {"measurement": "Amount Excreted (Ae)", "setting": "[3]; [5]", "result": 0, "unit": "µg"},
      {"measurement": "Total Excreted (%)", "setting": "[3]; [5]", "result": 0, "unit": "%"},
      {"measurement": "Amount Excreted (Ae)", "setting": "[3]; [6]", "result": 13.8, "unit": "µg"},
      {"measurement": "Total Excreted (%)", "setting": "[3]; [6]", "result": 0.00346, "unit": "%"},
      {"measurement": "Amount Excreted (Ae)", "setting": "[3]; [7]", "result": 0, "unit": "µg"},
      {"measurement": "Total Excreted (%)", "setting": "[3]; [7]", "result": 0, "unit": "%"},
      {"measurement": "Amount Excreted (Ae)", "setting": "[3]; [8]", "result": 0, "unit": "µg"},
      {"measurement": "Total Excreted (%)", "setting": "[3]; [8]", "result": 0, "unit": "%"},
      {"measurement": "Amount Excreted (Ae)", "setting": "[3]; KAR5585 in urine, 2000 mg KAR5585 single oral dose, mean", "result": 1.50, "unit": "µg"},
      {"measurement": "CL renal", "setting": "[3]; urine and plasma, po, 2000 mg, KAR5585, 2000 mg KAR5585 single oral dose, mean, read-out: CLR (converted)", "result": 0.0383, "unit": "mL/min"}
    ]}
  ]
}
